Toxic doses and inconclusive results are not listed. Rule for the calls: active = survival T/C of 150% or more; inactive = T/C below 125% in these data.
Tested on: BDF1 mice, B16 melanoma ip, median survival T/C
Assay: NCI In Vivo Anticancer Drug Screen. Data for tumor model B16 Melanoma (intraperitoneal) in B6D2F1 (BDF1) mice
Conditions: endpoint: median survival time, higher = longer survival
Procedure, shortened: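 Vehicle-treated animals serve as the reference (C); treated animals (T) are scored for survival or tumor size after tumor transplantation.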

[1] = dose: 12.5 mg/kg/injection, schedule: Q01DX009 (ip), vehicle: saline
[2] = dose: 25.0 mg/kg/injection, schedule: Q01DX009 (ip), vehicle: saline with Tween-80
[3] = dose: 10.0 mg/kg/injection, schedule: Q01DX009 (ip), vehicle: saline with Tween-80
[4] = dose: 100.0 mg/kg/injection, schedule: Q01DX009 (ip), vehicle: Klucel (hydroxypropylcellulose) (HPC)
[5] = dose: 200.0 mg/kg/injection, schedule: Q01DX009 (ip), vehicle: Klucel (hydroxypropylcellulose) (HPC)
[6] = dose: 400.0 mg/kg/injection, schedule: Q01DX009 (ip), vehicle: Klucel (hydroxypropylcellulose) (HPC)
[7] = dose: 100.0 mg/kg/injection, schedule: Q04DX003 (ip), vehicle: Klucel (hydroxypropylcellulose) (HPC)
[8] = dose: 200.0 mg/kg/injection, schedule: Q04DX003 (ip), vehicle: Klucel (hydroxypropylcellulose) (HPC)
[9] = dose: 400.0 mg/kg/injection, schedule: Q04DX003 (ip), vehicle: Klucel (hydroxypropylcellulose) (HPC)
[10] = dose: 12.5 mg/kg/injection, schedule: Q01DX009 (ip), vehicle: saline with Tween-80
[11] = dose: 50.0 mg/kg/injection, schedule: Q01DX009 (ip), vehicle: saline with Tween-80
[12] = dose: 100.0 mg/kg/injection, schedule: Q01DX009 (ip), vehicle: saline with Tween-80
[13] = dose: 200.0 mg/kg/injection, schedule: Q01DX009 (ip), vehicle: saline with Tween-80
[14] = dose: 400.0 mg/kg/injection, schedule: Q01DX009 (ip), vehicle: saline with Tween-80

Measured: T/C

CC(C)c1ccc(O)c(O)c1
inactive: [1] 95 % of control | [2] 104 % of control | dose: 25.0 mg/kg/injection, schedule: Q01DX009 (ip), vehicle: saline 100 % of control | dose: 50.0 mg/kg/injection, schedule: Q01DX009 (ip), vehicle: saline 96 % of control

Cc1ccc2c(C)c3ccc4ccccc4c3c[n+]2c1
inactive: [3] 104 % of control | dose: 20.0 mg/kg/injection, schedule: Q01DX009 (ip), vehicle: saline with Tween-80 106 % of control | dose: 40.0 mg/kg/injection, schedule: Q01DX009 (ip), vehicle: saline with Tween-80 100 % of control

N#CSc1ccc(NN)cc1
inactive: dose: 6.25 mg/kg/injection, schedule: Q01DX009 (ip), vehicle: other 96 % of control | dose: 12.5 mg/kg/injection, schedule: Q01DX009 (ip), vehicle: other 114 % of control | dose: 25.0 mg/kg/injection, schedule: Q01DX009 (ip), vehicle: other 99 % of control

S=C(SSSSC(=S)N1CCCCC1)N1CCCCC1
inactive: [4] 95 % of control | [5] 90 % of control | [6] 107 % of control

CSc1ncnc2c1ncn2-n1cccc1
inactive: [4] 88 % of control | [7] 100 % of control | [5] 88 % of control | [8] 100 % of control | [6] 113 % of control | [9] 100 % of control

CCN(C=O)CC
inactive: dose: 100.0 mg/kg/injection, schedule: Q01DX009 (ip), vehicle: saline 117 % of control | dose: 200.0 mg/kg/injection, schedule: Q01DX009 (ip), vehicle: saline 115 % of control | dose: 400.0 mg/kg/injection, schedule: Q01DX009 (ip), vehicle: saline 107 % of control

Cc1ccc(S(=O)(=O)N/N=C/c2ccccc2)cc1
inactive: dose: 50.0 mg/kg/injection, schedule: Q01DX009 (ip), vehicle: other 104 % of control | dose: 100.0 mg/kg/injection, schedule: Q01DX009 (ip), vehicle: other 110 % of control | dose: 200.0 mg/kg/injection, schedule: Q01DX009 (ip), vehicle: other 103 % of control | dose: 400.0 mg/kg/injection, schedule: Q01DX009 (ip), vehicle: other 106 % of control

CCCCCCNC(=O)Nc1cccc(Cl)c1C
inactive: [7] 92 % of control | [8] 90 % of control | [9] 87 % of control

C=C(C)C12OC3(c4ccccc4)OC1C1C4OC4(CO)C(O)C4(O)C(=O)C(C)=CC4C1(O3)C(C)C2OC(=O)/C=C/C=C/c1ccccc1 (stereo not drawn)
inactive: dose: 6.3 micrograms/kg/injection, schedule: Q01DX009 (ip), vehicle: saline with Tween-80 107 % of control | dose: 12.5 micrograms/kg/injection, schedule: Q01DX009 (ip), vehicle: saline with Tween-80 96 % of control | dose: 25.0 micrograms/kg/injection, schedule: Q01DX009 (ip), vehicle: alcohol 90 % of control | dose: 25.0 micrograms/kg/injection, schedule: Q01DX009 (ip), vehicle: saline with Tween-80 96 % of control | dose: 50.0 micrograms/kg/injection, schedule: Q01DX009 (ip), vehicle: alcohol 91 % of control | dose: 50.0 micrograms/kg/injection, schedule: Q01DX009 (ip), vehicle: saline with Tween-80 96 % of control | dose: 100.0 micrograms/kg/injection, schedule: Q01DX009 (ip), vehicle: alcohol 88 % of control | dose: 100.0 micrograms/kg/injection, schedule: Q01DX009 (ip), vehicle: saline with Tween-80 96 % of control

CC(=O)C12OC1(C)CC1C3CC=C4CC(O)CCC4(C)C3CCC12C (stereo not drawn)
inactive: [4] 107 % of control | [5] 95 % of control | [6] 105 % of control

O=[N+]([O-])c1ccc(S(=O)(=O)N/N=C\c2ccc(Cl)c(Cl)c2)cc1
inactive: [10] 109 % of control | [2] 114 % of control | [11] 112 % of control

CCCc1c(C)[nH]c2ccc(C)cc12
inactive: [2] 101 % of control | [11] 105 % of control | [12] 87 % of control

C1CC[N-]CC1.C1CC[N-]CC1.CS(C)=O.[Cl][Rh]([Cl])[Cl]
inactive: dose: 5.0 mg/kg/injection, schedule: Q01DX009 (ip), vehicle: saline with Tween-80 99 % of control | [3] 95 % of control

O=C(O[Si](Cc1ccccc1)(Cc1ccccc1)Cc1ccccc1)N(CCCl)CCCl
inactive: dose: 6.25 mg/kg/injection, schedule: Q01DX009 (ip), vehicle: saline with Tween-80 100 % of control | [10] 112 % of control | [2] 104 % of control | [11] 108 % of control

CC1OC(Oc2c(-c3cc(O)c(O)c(O)c3)oc3cc(O)cc(O)c3c2=O)C(O)C(O)C1O (stereo not drawn)
inactive: [12] 112 % of control | [13] 113 % of control | [14] 90 % of control

COc1ccc(NC(=O)Oc2ccccc2Cc2ccccc2)cc1
inactive: dose: 50.0 mg/kg/injection, schedule: Q01DX009 (ip), vehicle: Klucel (hydroxypropylcellulose) (HPC) 96 % of control | dose: 50.0 mg/kg/injection, schedule: Q04DX003 (ip), vehicle: Klucel (hydroxypropylcellulose) (HPC) 96 % of control | [4] 93 % of control | [7] 96 % of control | [5] 100 % of control | [8] 93 % of control

C[C@H]1[C@H](O)[C@H]2[C@@H](CCC3=CC(=O)CC[C@@]32C)[C@@H]2CC[C@H](O)[C@@]12C
inactive: [12] 94 % of control | [13] 100 % of control

Cc1cc2c3ccccc3ccc2[n+]2ccccc12
inactive: dose: 6.25 mg/kg/injection, schedule: Q01DX009 (ip), vehicle: saline 95 % of control | [1] 93 % of control

CC(=O)Oc1cccc(C#N)c1
inactive: [12] 108 % of control | [13] 112 % of control | [14] 91 % of control

CCOC(=O)c1c(N)sc2c1CCN(C)C2
inactive: dose: 6.25 mg/kg/injection, schedule: Q04DX003 (ip), vehicle: Klucel (hydroxypropylcellulose) (HPC) 95 % of control | dose: 12.5 mg/kg/injection, schedule: Q01DX009 (ip), vehicle: Klucel (hydroxypropylcellulose) (HPC) 100 % of control | dose: 12.5 mg/kg/injection, schedule: Q04DX003 (ip), vehicle: Klucel (hydroxypropylcellulose) (HPC) 102 % of control | dose: 25.0 mg/kg/injection, schedule: Q01DX009 (ip), vehicle: Klucel (hydroxypropylcellulose) (HPC) 102 % of control | dose: 25.0 mg/kg/injection, schedule: Q04DX003 (ip), vehicle: Klucel (hydroxypropylcellulose) (HPC) 89 % of control | dose: 35.0 mg/kg/injection, schedule: Q04DX003 (ip), vehicle: Klucel (hydroxypropylcellulose) (HPC) 105 % of control | dose: 55.0 mg/kg/injection, schedule: Q04DX003 (ip), vehicle: Klucel (hydroxypropylcellulose) (HPC) 121 % of control

O=S(=O)(O)SCCNCCCCCC1CCCCC1
inactive: dose: 0.75 mg/kg/injection, schedule: Q01DX009 (ip), vehicle: saline with Tween-80 90 % of control | dose: 1.5 mg/kg/injection, schedule: Q01DX009 (ip), vehicle: saline with Tween-80 95 % of control | dose: 3.0 mg/kg/injection, schedule: Q01DX009 (ip), vehicle: saline with Tween-80 93 % of control | dose: 6.0 mg/kg/injection, schedule: Q01DX009 (ip), vehicle: saline with Tween-80 104 % of control | dose: 12.0 mg/kg/injection, schedule: Q01DX009 (ip), vehicle: saline with Tween-80 100 % of control

OC(CC(O)(C(F)(F)F)C(F)(F)F)c1cccc(Cl)c1 (stereo not drawn)
inactive: dose: 50.0 mg/kg/injection, schedule: Q04DX003 (ip), vehicle: gum acacia 105 % of control | dose: 100.0 mg/kg/injection, schedule: Q04DX003 (ip), vehicle: gum acacia 90 % of control | dose: 200.0 mg/kg/injection, schedule: Q04DX003 (ip), vehicle: gum acacia 90 % of control

Reference: PubChem BioAssay AID192 (DTP/NCI, 2004)
